This experiment concerns the target human PDE4B1 (Homo sapiens (Human), UniProt Q07343). Description: cAMP HTRF assay to determine the activity of hPDE4B1. The format is biochemical. The settings on record: for IC50: human recombinant PDE4B1 expressed in Sf9 cells, cAMP 40 nM, N=1-2, n=2, read-out: PDE4B IC50-value; for inhibition at 3 µM: inhibition of PDE4B at a test substrate concentration of 3 μM. How it is done:
A: Determination of the PDE4B IC50 Values with a cAMP HRTF® Assay to Determine the Activity of hPDE4B1
The inhibiting effect of the compounds on the enzyme activity of human PDE4B1 is measured by the quantification of 5′-AMP, which is formed from 3′,5′-adenosine monophosphate (cAMP). Human recombinant enzyme, expressed in Sf9 cells, and the HTRF (homogeneous time-resolved fluorescence) detection method are used in the assay.
The test compound or water (control) is mixed with the human recombinant PDE4B1 enzyme (4.8 U) in a buffer consisting of 44.4 mM tris-HCl, 5.28 mM MgCl2, 2.64 mM DTT and 0.044% Tween 20 (pH 7.8). After adding the cAMP enzyme substrate (final concentration 40 nM) the mixture is incubated for 30 minutes at room temperature. Then a fluorescence acceptor (Dye2 marked with cAMP), a fluorescence donor (anti-cAMP antibody marked with a europium cryptate) and the non-specific phosphodiesterase inhibitor IBMX (3-isobutyl-1-methylxanthine; final concentration 1 mM) are added. After 60 minutes the fluorescence transfer, which correlates with the amount of remaining cAMP, is measured with a microplate reader (Rubystar, BMG) at λex=337 nm, λem=620 nm and λem=665 nm. The enzyme activity is calculated from the quotient formed from the measured signal at 665 nm and that at 620 nm. The result is expressed as the percentage inhibition of enzyme activity of the control (without PDE4 inhibitor) (literature: N. Saldou et al., Comparison of recombinant human PDE4 isoforms: interaction with substrate and inhibitors, Cell. Signal. Vol. 10, No. 6, 427-440, 1998). The enzyme is omitted for measurement of the basal control.
A general note: Time-resolved FRET reads energy transfer from a long-lived donor to a nearby acceptor.

Where only a bound is given, the exact number is not on record here.

Sequence of human PDE4B1 (Q07343 whole entry): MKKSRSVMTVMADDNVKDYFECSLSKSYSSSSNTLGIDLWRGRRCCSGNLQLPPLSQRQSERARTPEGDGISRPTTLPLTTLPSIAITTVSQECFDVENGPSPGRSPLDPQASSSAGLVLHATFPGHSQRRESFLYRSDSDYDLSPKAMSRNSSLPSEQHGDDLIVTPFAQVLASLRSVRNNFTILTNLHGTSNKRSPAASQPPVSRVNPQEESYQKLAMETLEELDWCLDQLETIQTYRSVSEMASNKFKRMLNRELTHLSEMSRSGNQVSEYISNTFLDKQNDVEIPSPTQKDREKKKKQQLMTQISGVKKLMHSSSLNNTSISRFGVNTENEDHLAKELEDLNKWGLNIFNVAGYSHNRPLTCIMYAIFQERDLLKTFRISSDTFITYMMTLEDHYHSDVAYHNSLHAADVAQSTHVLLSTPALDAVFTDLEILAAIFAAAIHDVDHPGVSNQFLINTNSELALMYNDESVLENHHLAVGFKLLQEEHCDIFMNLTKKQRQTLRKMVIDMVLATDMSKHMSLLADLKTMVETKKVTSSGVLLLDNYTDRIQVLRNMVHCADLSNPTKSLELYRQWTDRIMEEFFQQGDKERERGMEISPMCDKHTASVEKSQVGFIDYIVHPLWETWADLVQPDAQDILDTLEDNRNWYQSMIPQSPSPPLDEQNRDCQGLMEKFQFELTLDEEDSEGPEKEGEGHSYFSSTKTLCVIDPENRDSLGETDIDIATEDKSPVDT

In general, IC50 refers to the point on the concentration scale where inhibition reaches its midpoint. Take `CCc1nc(-c2ccc(OC)nc2)nc2c1ccn2-c1cccc(OCC(=O)N(C)C)c1` [Compound 77, 2-(3-(4-ethyl-2-(6-methoxypyridin-3-yl)-7H-pyrrolo[2,3-d]pyrimidin-7-yl)phenoxy)-N,N-dimethylacetamide]: the half-maximal inhibitory concentration (IC50) lay in the range of 1000 to 10000 nM.
The inhibition is the change of the read-out against control, counted positive when it falls. Lower therefore signals a weak effect. Consider `CCc1nc(-c2ccc(S(C)(=O)=O)cc2)nc2c1ccn2-c1cccc(OCC(=O)N(C)C)c1` [Compound 91, 2-(3-(4-Ethyl-2-(4-(methylsulfonyl)phenyl)-7H-pyrrolo[2,3-d]pyrimidin-7-yl)phenoxy)-N,N-dimethylacetamide], for which testing at 3 µM gave an inhibition of 52%.
`CCc1nc(-c2ccc(OC)c(F)c2)nc2c1ccn2-c1cccc(OCC(=O)N(C)C)c1` [Compound 85, 2-(3-(4-Ethyl-2-(3-fluoro-4-methoxyphenyl)-7H-pyrrolo[2,3-d]pyrimidin-7-yl)phenoxy)-N,N-dimethylacetamide] registered an inhibition at 3 µM of 43%.
With `COc1ccc(-c2nc(C)c3c(n2)N(c2ccc(CC(=O)O)cc2)CC3)cc1Cl` [Compound 20, 2-(4-(2-(3-Chloro-4-methoxyphenyl)-4-methyl-5H-pyrrolo[2,3-d]pyrimidin-7(6H)-yl)phenyl)acetic acid], the 50% inhibitory concentration (IC50) is under 1000 nM.
With `CCc1nc(-c2ccc3occc3c2)nc2c1CCN2c1ccc(C(=O)O)cc1` [Compound 84, 4-(2-(Benzofuran-5-yl)-4-ethyl-5H-pyrrolo[2,3-d]pyrimidin-7(6H)-yl)benzoic acid], the inhibition at 3 µM was determined as 45%.
Still for that read-out and setting: then `CCc1nc(-c2ccc3ncsc3c2)nc2c1CCN2c1ccc(CC(=O)O)cc1` [Compound 93, 2-(4-(2-(Benzo[d]thiazol-6-yl)-4-ethyl-5H-pyrrolo[2,3-d]pyrimidin-7(6H)-yl)phenyl)acetic acid], with 57%; and `CCc1nc(-c2cncnc2)nc2c1ccn2-c1cccc(OCC(=O)N(C)C)c1` [Compound 97, 2-(3-(4-Ethyl-2-(pyrimidin-5-yl)-7H-pyrrolo[2,3-d]pyrimidin-7-yl)phenoxy)-N,N-dimethylacetamide], with 67%.
Consider `CCc1nc(-c2ccc(OC)c(F)c2)nc2c1ccn2-c1ccc(CC(=O)O)cc1` [Compound 4, 2,2,2-Trifluoroacetic acid compound with 2-(4-(4-ethyl-2-(3-fluoro-4-methoxyphenyl)-7H-pyrrolo[2,3-d]pyrimidin-7-yl)phenyl)acetic acid (1:1)], for which the IC50 is under 1000 nM.
Same read-out and setting: the result for `CCc1nc(-c2ccc(OC)c(Cl)c2)nc2c1CCN2c1ccc(CC(=O)O)cc1` [Compound 21, 2-(4-(2-(3-Chloro-4-methoxyphenyl)-4-ethyl-5H-pyrrolo[2,3-d]pyrimidin-7(6H)-yl)phenyl)acetic acid] reads under 1000 nM; that for `CCc1nc(-c2ccc(OC)c(F)c2)nc2c1CCN2c1cccc(OCC(=O)N(C)C)c1` [Compound 9, 2-(3-(4-Ethyl-2-(3-fluoro-4-methoxyphenyl)-5H-pyrrolo[2,3-d]pyrimidin-7(6H)-yl)phenoxy)-N,N-dimethylacetamide], under 1000 nM.
In turn, `CCOc1ccc(-c2nc(CC)c3c(n2)N(c2ccc(CC(=O)O)cc2)CC3)cc1` [Compound 96, 2-(4-(2-(4-Ethoxyphenyl)-4-ethyl-5H-pyrrolo[2,3-d]pyrimidin-7(6H)-yl)phenyl)acetic acid] gave an inhibition at 3 µM of 39%.
Regarding `CCc1nc(-c2cccnc2OC)nc2c1ccn2-c1cccc(OCC(=O)N(C)C)c1` [Compound 80, 2-(3-(4-ethyl-2-(2-methoxypyridin-3-yl)-7H-pyrrolo[2,3-d]pyrimidin-7-yl)phenoxy)-N,N-dimethylacetamide], the concentration for half-maximal inhibition (IC50) is under 1000 nM.
`CCOc1cccc(-c2nc(CC)c3c(n2)N(c2ccc(C(=O)O)cc2)CC3)c1` [Compound 98, 4-(2-(3-Ethoxyphenyl)-4-ethyl-5H-pyrrolo[2,3-d]pyrimidin-7(6H)-yl)benzoic acid] registered an inhibition at 3 µM of 43%.
On the same count and under the same terms, the result for `CCc1nc(-c2ccc(F)c(Cl)c2)nc2c1CCN2c1ccc(CC(=O)O)cc1` [Compound 99, 2-(4-(2-(3-Chloro-4-fluorophenyl)-4-ethyl-5H-pyrrolo[2,3-d]pyrimidin-7(6H)-yl)phenyl)acetic acid] reads 54%.

Values taken from US9688683B2, “Substituted condensed pyrimidine compounds” (GRÜNENTHAL GMBH, priority 2013, dated 2017).
